What was measured:
UACC-62 = experiment: Growth inhibition of human UACC62 cells assessed as cell growth at 10 uM incubated for 48 hrs by sulforhodamine B assay relative to control; assay type: functional; details: UACC-62, 48 h, read-out: Activity
OVCAR-3 = experiment: Growth inhibition of human OVCAR3 cells assessed as cell growth at 10 uM incubated for 48 hrs by sulforhodamine B assay relative to control; assay type: functional; details: OVCAR-3, 48 h, read-out: Activity
KM12 = experiment: Growth inhibition of human KM12 cells assessed as cell growth at 10 uM incubated for 48 hrs by sulforhodamine B assay relative to control; assay type: functional; details: KM12, 48 h, read-out: Activity
U-251 = experiment: Growth inhibition of human U251 cells assessed as cell growth at 10 uM incubated for 48 hrs by sulforhodamine B assay relative to control; assay type: functional; details: U-251, 48 h, read-out: Activity
SK-MEL-5 = experiment: Growth inhibition of human SK-MEL-5 cells assessed as cell growth at 10 uM incubated for 48 hrs by sulforhodamine B assay relative to control; assay type: functional; details: SK-MEL-5, 48 h, read-out: Activity
NCI/ADR-RES = experiment: Growth inhibition of human NCI/ADR-RES cells incubated for 48 hrs by sulforhodamine B assay; assay type: functional; details: for CC50: read-out: LC50 (the source's name)
SN12C = experiment: Growth inhibition of human SN12C cells assessed as cell growth at 10 uM incubated for 48 hrs by sulforhodamine B assay relative to control; assay type: functional; details: read-out: Activity
DU-145 = experiment: Growth inhibition of human DU145 cells assessed as cell growth at 10 uM incubated for 48 hrs by sulforhodamine B assay relative to control; assay type: functional; details: DU-145, 48 h, read-out: Activity
NCI-H226 [1] = experiment: Growth inhibition of human NCI-H226 cells assessed as cell growth at 10 uM incubated for 48 hrs by sulforhodamine B assay relative to control; assay type: functional; details: NCI-H226, 48 h, read-out: Activity
HCC 2998 = experiment: Growth inhibition of human HCC2998 cells assessed as cell growth at 10 uM incubated for 48 hrs by sulforhodamine B assay relative to control; assay type: functional; details: HCC 2998, 48 h, read-out: Activity
[2] = molecular target: RAF proto-oncogene serine/threonine-protein kinase (Homo sapiens, UniProt P04049); experiment: Inhibition of human c-RAF using MEK1 as substrate in presence of [33P]ATP by Hotspot assay
Hs-578T [3] = experiment: Growth inhibition of human Hs 578T cells assessed as cell growth at 10 uM incubated for 48 hrs by sulforhodamine B assay relative to control; assay type: functional; details: read-out: Activity
RXF 393 = experiment: Growth inhibition of human RXF393 cells assessed as cell growth at 10 uM incubated for 48 hrs by sulforhodamine B assay relative to control; assay type: functional; details: RXF 393, 48 h, read-out: Activity
SK-MEL-2 = experiment: Growth inhibition of human SK-MEL-2 cells assessed as cell growth at 10 uM incubated for 48 hrs by sulforhodamine B assay relative to control; assay type: functional; details: SK-MEL-2, 48 h, read-out: Activity
Malme-3M = experiment: Growth inhibition of human MALME-3M cells assessed as cell growth at 10 uM incubated for 48 hrs by sulforhodamine B assay relative to control; assay type: functional; details: read-out: Activity
SF-268 = experiment: Growth inhibition of human SF268 cells incubated for 48 hrs by sulforhodamine B assay; assay type: functional; details: SF-268, 48 h
NCI-H460 = experiment: Growth inhibition of human NCI-H460 cells assessed as cell growth at 10 uM incubated for 48 hrs by sulforhodamine B assay relative to control; assay type: functional; details: NCI-H460, 48 h, read-out: Activity
EKVX = experiment: Growth inhibition of human EKVX cells assessed as cell growth at 10 uM incubated for 48 hrs by sulforhodamine B assay relative to control; assay type: functional; details: read-out: Activity
SK-OV-3 [4] = experiment: Growth inhibition of human SKOV3 cells assessed as cell growth at 10 uM incubated for 48 hrs by sulforhodamine B assay relative to control; assay type: functional; details: SK-OV-3, 48 h, read-out: Activity
SK-OV-3 [5] = experiment: Growth inhibition of human SKOV3 cells incubated for 48 hrs by sulforhodamine B assay; assay type: functional; details: SK-OV-3, 48 h; for CC50: read-out: LC50 (the source's name)
NCI-H226 [6] = experiment: Growth inhibition of human NCI-H226 cells incubated for 48 hrs by sulforhodamine B assay; assay type: functional; details: NCI-H226, 48 h; for CC50: read-out: LC50 (the source's name)
Hs-578T [7] = experiment: Growth inhibition of human Hs 578T cells incubated for 48 hrs by sulforhodamine B assay; assay type: functional; details: for CC50: read-out: LC50 (the source's name)
CAKI-1 = experiment: Growth inhibition of human Caki1 cells assessed as cell growth at 10 uM incubated for 48 hrs by sulforhodamine B assay relative to control; assay type: functional; details: CAKI-1, 48 h, read-out: Activity
RPMI-8226 = experiment: Growth inhibition of human RPMI8226 cells assessed as cell growth at 10 uM incubated for 48 hrs by sulforhodamine B assay relative to control; assay type: functional; details: RPMI-8226, 48 h, read-out: Activity
HOP-62 = experiment: Growth inhibition of human HOP62 cells assessed as cell growth at 10 uM incubated for 48 hrs by sulforhodamine B assay relative to control; assay type: functional; details: HOP-62, 48 h, read-out: Activity
HCT-15 = experiment: Growth inhibition of human HCT15 cells incubated for 48 hrs by sulforhodamine B assay; assay type: functional; details: HCT-15, 48 h
MDA-MB-468 = experiment: Growth inhibition of human MDA-MB-468 cells assessed as cell growth at 10 uM incubated for 48 hrs by sulforhodamine B assay relative to control; assay type: functional; details: MDA-MB-468, 48 h, read-out: Activity
HCT-116 = experiment: Growth inhibition of human HCT116 cells assessed as cell growth at 10 uM incubated for 48 hrs by sulforhodamine B assay relative to control; assay type: functional; details: HCT-116, 48 h, read-out: Activity
A549 = experiment: Growth inhibition of human A549/ATCC cells assessed as cell growth at 10 uM incubated for 48 hrs by sulforhodamine B assay relative to control; assay type: functional; details: A549, 48 h, read-out: Activity
UO-31 = experiment: Growth inhibition of human UO31 cells assessed as cell growth at 10 uM incubated for 48 hrs by sulforhodamine B assay relative to control; assay type: functional; details: UO-31, 48 h, read-out: Activity
SR = experiment: Growth inhibition of human SR cells assessed as cell growth at 10 uM incubated for 48 hrs by sulforhodamine B assay relative to control; assay type: functional; details: read-out: Activity
OVCAR-4 = experiment: Growth inhibition of human OVCAR4 cells assessed as cell growth at 10 uM incubated for 48 hrs by sulforhodamine B assay relative to control; assay type: functional; details: OVCAR-4, 48 h, read-out: Activity
A498 = experiment: Growth inhibition of human A498 cells incubated for 48 hrs by sulforhodamine B assay; assay type: functional; details: A498, 48 h; for CC50: read-out: LC50 (the source's name)

RAF proto-oncogene serine/threonine-protein kinase, sequence (P04049 whole entry): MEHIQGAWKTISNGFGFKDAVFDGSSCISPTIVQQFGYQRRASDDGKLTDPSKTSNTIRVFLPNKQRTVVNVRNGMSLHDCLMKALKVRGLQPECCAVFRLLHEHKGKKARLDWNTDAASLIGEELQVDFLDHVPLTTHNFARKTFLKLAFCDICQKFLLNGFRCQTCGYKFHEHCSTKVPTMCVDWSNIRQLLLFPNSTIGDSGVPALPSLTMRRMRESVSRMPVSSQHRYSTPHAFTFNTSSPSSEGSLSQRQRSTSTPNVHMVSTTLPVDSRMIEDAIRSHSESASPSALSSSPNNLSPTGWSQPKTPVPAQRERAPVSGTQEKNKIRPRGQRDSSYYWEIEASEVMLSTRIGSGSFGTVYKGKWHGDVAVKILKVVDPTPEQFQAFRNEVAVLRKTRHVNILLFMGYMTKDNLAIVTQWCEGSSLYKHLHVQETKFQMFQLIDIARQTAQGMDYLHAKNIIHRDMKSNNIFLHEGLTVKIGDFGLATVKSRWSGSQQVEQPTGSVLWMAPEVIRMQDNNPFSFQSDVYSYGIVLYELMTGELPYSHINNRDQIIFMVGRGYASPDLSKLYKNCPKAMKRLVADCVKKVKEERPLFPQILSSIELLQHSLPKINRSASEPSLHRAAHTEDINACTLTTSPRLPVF

## COc1cc2cc(Oc3ccc(NC(=O)Nc4cccc(C(F)(F)F)c4)cc3)c(C)nc2cc1OC
UACC-62
  growth at 10 µM: 14.5%
OVCAR-3
  growth at 10 µM: -0.54%
KM12
  growth at 10 µM: -10.2%
U-251
  growth at 10 µM: -85.7%
SK-MEL-5
  growth at 10 µM: -86.1%
NCI/ADR-RES
  GI50: 1.71 µM
  TGI: 7.19 µM
  CC50: 40 µM
SN12C
  growth at 10 µM: 17.2%
DU-145
  growth at 10 µM: 26.7%
NCI-H226 [1]
  growth at 10 µM: -23.5%
HCC 2998
  growth at 10 µM: 25.4%
[2]
  IC50: 0.15 µM
Hs-578T [3]
  growth at 10 µM: 22.6%
RXF 393
  growth at 10 µM: -13.1%
SK-MEL-2
  growth at 10 µM: -35.8%
Malme-3M
  growth at 10 µM: 7.22%
SF-268
  GI50: 2.57 µM
  LC50 (50% lethal concentration): > 50 µM
  TGI: 15.5 µM
NCI-H460
  growth at 10 µM: 2.68%
EKVX
  growth at 10 µM: 15.4%
SK-OV-3 [4]
  growth at 10 µM: 3.35%
SK-OV-3 [5]
  GI50: 2.06 µM
  TGI: 10.6 µM
  CC50: > 50 µM
NCI-H226 [6]
  GI50: 1.8 µM
  TGI: 5.6 µM
  CC50: 28.8 µM
Hs-578T [7]
  GI50: 1.44 µM
  TGI: 4.22 µM
  CC50: > 50 µM
CAKI-1
  growth at 10 µM: 9.13%
RPMI-8226
  growth at 10 µM: -5.94%
HOP-62
  growth at 10 µM: 25%
HCT-15
  GI50: 1.85 µM
  LC50 (lethal concentration, 50% net cell kill): > 50 µM
  TGI: 22.2 µM
MDA-MB-468
  growth at 10 µM: -32.5%
HCT-116
  growth at 10 µM: 6.71%
A549
  growth at 10 µM: 3.09%
UO-31
  growth at 10 µM: 11.3%
SR
  growth at 10 µM: -6.62%
OVCAR-4
  growth at 10 µM: 31.7%
A498
  GI50: 1.29 µM
  TGI: 4.95 µM
  CC50: 29.7 µM

## COc1cc2cc(Oc3ccc(NC(=O)Nc4ccc(Cl)c(Cl)c4)cc3)c(C)nc2cc1OC
UACC-62
  growth at 10 µM: 20.4%
OVCAR-3
  growth at 10 µM: -10%
KM12
  growth at 10 µM: 13.9%
U-251
  growth at 10 µM: -32.3%
SK-MEL-5
  growth at 10 µM: -35%
NCI/ADR-RES
  GI50: 2.6 µM
  TGI: 16.9 µM
  CC50: > 100 µM
SN12C
  growth at 10 µM: 22.1%
DU-145
  growth at 10 µM: 24.8%
NCI-H226 [1]
  growth at 10 µM: 7.74%
HCC 2998
  growth at 10 µM: 37.6%
[2]
  IC50: 0.22 µM
Hs-578T [3]
  growth at 10 µM: 45.1%
RXF 393
  growth at 10 µM: 22.3%
SK-MEL-2
  growth at 10 µM: -7.82%
Malme-3M
  growth at 10 µM: 14.9%
SF-268
  GI50: 8.23 µM
  LC50 (50% lethal concentration): > 100 µM
  TGI: > 100 µM
NCI-H460
  growth at 10 µM: 3.68%
EKVX
  growth at 10 µM: 21%
SK-OV-3 [4]
  growth at 10 µM: 28.6%
SK-OV-3 [5]
  GI50: 7.56 µM
  TGI: 26.4 µM
  CC50: 84.8 µM
NCI-H226 [6]
  GI50: 3.12 µM
  TGI: 8.68 µM
  CC50: 35.8 µM
Hs-578T [7]
  GI50: 3.53 µM
  TGI: 9.68 µM
  CC50: > 100 µM
CAKI-1
  growth at 10 µM: 21.8%
RPMI-8226
  growth at 10 µM: 4.2%
HOP-62
  growth at 10 µM: 55.2%
HCT-15
  GI50: 3.56 µM
  LC50 (lethal concentration, 50% net cell kill): > 100 µM
  TGI: > 100 µM
MDA-MB-468
  growth at 10 µM: -16.7%
HCT-116
  growth at 10 µM: 10.5%
A549
  growth at 10 µM: 4.35%
UO-31
  growth at 10 µM: 3.69%
SR
  growth at 10 µM: 18%
OVCAR-4
  growth at 10 µM: 31.9%
A498
  GI50: 1.95 µM
  TGI: 7.93 µM
  CC50: 74.9 µM

Source: ChEMBL document CHEMBL3994622, “Design and synthesis of new RAF kinase-inhibiting antiproliferative quinoline derivatives. Part 2: Diarylurea derivatives” (Eur J Med Chem, 2017)
